According to ChEMBL document CHEMBL5393443, “Novel inhibitors of insulin-like growth factor 2 mrna binding proteins” (2022):

System: ES-2
Experiment: Cytotoxicity against human ES2 cells after 72 hrs by InuCyte live cell imaging analysis
Assay type: functional, cell-based
Details: ES-2, 72 h

Row | Compound | EC50
1 | Cc1cc2c(O)nc(Cc3ccccc3)nc2s1 | 4840 nM
2 | NC(=O)c1ccsc1NC(=O)c1cccs1 | 3230 nM
3 | NC(=O)c1ccccc1NC(=O)CN1CCN(Cc2ccc(Cl)cc2Cl)CC1 | 993 nM
4 | NC(=O)c1ccccc1NC(=O)c1ccccc1 | 10500 nM
5 | NC(=O)c1cc(Cc2ccccc2)sc1NC(=O)CN1CCN(Cc2ccccc2Cl)CC1 | 7110 nM
6 | COc1ccc(C(=O)Nc2sc(Cc3ccccc3)cc2C(N)=O)cc1 | 1940 nM
7 | COc1ccc(C(=O)Nc2sc(C(C)C)cc2C(N)=O)cc1COc1ccc(Br)cc1 | 8340 nM
8 | CC(Sc1nnc(NC(=O)c2ccccc2)s1)c1nc2ccccc2c(=O)[nH]1 (configuration not stated) | 4050 nM
9 | NC(=O)c1cc(Cc2ccccc2)sc1NC(=O)c1ccc2c(c1)OCO2 | 1300 nM
10 | NC(=O)c1ccccc1NC(=O)c1ccc(Cl)c(Cl)c1 | 1880 nM
11 | COc1cc(/C=C/C(=O)Nc2ccccc2C(N)=O)ccc1OCc1ccccc1 | 1880 nM
12 | NC(=O)c1cc(Cc2ccccc2)sc1NC(=O)c1ccccc1 | 2270 nM
13 | COc1ccc(C(=O)Nc2ccccc2C(N)=O)cc1COc1ccccc1Cl | 1100 nM
14 | NC(=O)c1ccsc1NC(=O)CN1CCN(Cc2ccc(Cl)c(Cl)c2)CC1 | 781 nM
15 | NC(=O)c1cc(Cc2ccccc2)sc1NC(=O)Cc1cccs1 | 1160 nM
16 | CC(C)c1cc(C(N)=O)c(NC(=O)Cc2ccc(Cl)c(Cl)c2)s1 | 2450 nM
17 | NC(=O)c1ccccc1NC(=O)CN1CCN(Cc2c(Cl)cccc2Cl)CC1 | 6460 nM
18 | NC(=O)c1cc(Cc2ccccc2)sc1NC(=O)c1cccs1 | 671 nM
19 | COc1cc(-c2nc3ccccc3c(=O)[nH]2)ccc1OCc1ccccc1[N+](=O)[O-] | 476 nM

Row | Compound | EC50
20 | NC(=O)c1ccccc1OCC(=O)c1ccc(Br)cc1 | 2950 nM
21 | COc1ccc(C(=O)Nc2sc(Cc3ccccc3)cc2C(N)=O)cc1COc1c(Cl)cccc1Cl | 2600 nM
22 | NC(=O)c1ccccc1NC(=O)c1cc(Cl)cc(Cl)c1 | 5140 nM
23 | NC(=O)c1c(NC(=O)c2ccc(Cl)s2)sc2c1CCCC2 | 1470 nM
24 | O=c1[nH]c(-c2ccc(OCc3ccccc3F)cc2)nc2ccccc12 | 250 nM
25 | NC(=O)c1ccccc1NC(=O)c1cccc(COc2cccc(Cl)c2)c1 | 675 nM
26 | COc1ccc(C(=O)Nc2sc(Cc3ccccc3)cc2C(N)=O)cc1COc1ccccc1Cl | 439 nM
27 | COc1ccc(C(=O)Nc2sc(C(C)C)cc2C(N)=O)cc1COc1ccccc1Cl | 2230 nM
28 | NC(=O)c1cc(Cc2ccccc2)sc1NC(=O)COc1ccccc1 | 2420 nM
29 | NC(=O)c1ccccc1NC(=O)C1CCN(C(=O)c2cccs2)CC1 | 5180 nM
30 | NC(=O)c1cc(Cc2ccccc2)sc1NC(=O)c1cccc(COc2ccc(Cl)cc2Cl)c1 | 47 nM
31 | CCc1cc(C(=O)Nc2sccc2C(N)=O)cs1 | 2950 nM
32 | COc1ccc(C(=O)Nc2ccccc2C(N)=O)cc1Cl | 5840 nM
33 | NC(=O)c1ccccc1NC(=O)CN1CCN(Cc2ccc(Cl)c(Cl)c2)CC1 | 1220 nM
34 | NC(=O)c1cc(Cc2ccccc2)sc1NC(=O)c1ccc(COc2ccc(Br)cc2)cc1 | 1190 nM
35 | COc1ccc(C(=O)Nc2sc(Cc3ccccc3)cc2C(N)=O)cc1OCc1ccccc1Cl | 1100 nM
36 | COc1ccc(C(=O)Nc2sc(Cc3ccccc3)cc2C(N)=O)cc1COc1cccc(Cl)c1 | 355 nM
37 | CCc1c(C(=O)Nc2sc(Cc3ccccc3)cc2C(N)=O)csc1C | 5060 nM
38 | NC(=O)c1ccccc1NC(=O)CN1CCN(Cc2ccc(Cl)cc2)CC1 | 2990 nM

Row | Compound | EC50
39 | NC(=O)c1cc(Cc2ccccc2)sc1NC(=O)c1ccc(COc2ccc(Cl)cc2Cl)s1 | 560 nM
40 | COc1ccc(C(=O)Nc2sc(Cc3ccccc3)cc2C(N)=O)cc1COc1cccc(Cl)c1Cl | 401 nM
41 | NC(=O)c1c(NC(=O)c2ccc(Cl)s2)sc2c1CCC2 | 6270 nM
42 | NC(=O)c1cc(Cc2ccccc2)sc1NC(=O)c1ccc(Cl)s1 | 1660 nM
43 | COc1ccc(C(=O)Nc2sccc2C(N)=O)cc1COc1ccccc1Cl | 1660 nM
44 | NC(=O)c1ccccc1NC(=O)CN1CCN(Cc2ccc(F)cc2Cl)CC1 | 3170 nM
45 | NC(=O)c1ccccc1NC(=O)c1ccc(Cl)s1 | 2300 nM
46 | COc1ccc(OCc2cc(-c3nc4sc(Cc5ccccc5)cc4c(=O)[nH]3)ccc2OC)cc1 | 1120 nM
47 | CCc1cc(C(=O)Nc2sc(Cc3ccccc3)cc2C(N)=O)cs1 | 1900 nM
48 | COc1ccc(C(=O)Nc2sc(Cc3ccccc3)cc2C(N)=O)cc1COc1ccc(Cl)cc1 | 1020 nM
49 | NC(=O)c1cc(Cc2ccccc2)sc1NC(=O)CCc1ccccc1 | 6210 nM
50 | CNC(=O)c1ccccc1NC(=O)c1cc(C)c(C)s1 | 2830 nM
51 | Cc1ccc(C(=O)Nc2ccccc2C(N)=O)s1 | 2060 nM
52 | NC(=O)c1ccccc1OCc1ccc(Cl)s1 | 5610 nM
53 | COc1ccc(C(=O)Nc2sc(Cc3ccccc3)cc2C(N)=O)cc1COc1ccc(Cl)cc1Cl | 293 nM
54 | NC(=O)c1ccccc1NC(=O)CN1CCN(Cc2ccccc2Cl)CC1 | 9580 nM
55 | NC(=O)c1cc(Cc2ccccc2)sc1NC(=O)CN1CCN(Cc2ccc(Cl)c(Cl)c2)CC1 | 4090 nM
56 | NC(=O)c1cc(Cl)ccc1OCC(=O)c1ccc(Cl)s1 | 1330 nM
57 | Cc1ccc(C(=O)Nc2sc(Cc3ccccc3)cc2C(N)=O)o1 | 1340 nM
